This note sets out measurements from patent US20260191196A1, “COMPOSITIONS AND METHODS FOR IMPROVING SOIL MICROBIAL POPULATIONS” (SYNGENTA CROP PROTECTION AG, priority 2022, published 2026).

The structures appear in SMILES notation.

Test [1] relates to arbuscular mycorrhizae fungi. As to the kind of experiment: Mycorrhization in soybean roots after seed treatment. In kind it is in vivo. The settings on record: Glycine max; soybean variety Toliman, seed treatment 0.15 mg ai/seed, mycorrhizal inoculant Blend A; relative to control; read-out: [%] arbuscular mycorrhizae fungi colonization vs. control. The protocol:
Soybeans of variety Toliman were treated with 0.15 mg ai/seed of cyclobutrifluram and analogues, and planted in 1.5 L pots of 0-3 mm sieved soil. The seeds were inoculated with Bradyrhizobium japonicum using a commercially available product for soybeans.
In a first series, for each active ingredient tested, 15 replicate pots were sowed. In each pot, 3 seeds were sowed. After germination, 2 seedling was removed from each pot to a final number of 1 plant per pot. Each pot was inoculated with a small amount of a mycorrhizal inoculant (Blend A, commercially available from Symbiom, Czech Republic). The plants were grown in a greenhouse for 81 days under the following conditions: Humidity at 45-64%, Temperature of 22° C. to 24° C., in a 16/8 hour day/night cycle. In a further test series, Soybeans seeds treated as outlined above were then planted in 1 Lpots of 0-3 mm sieved soil. For each active ingredient, 8 replicate pots were sowed, whereby in each pot, 3 seeds were sowed. After germination, 2 seedlings were removed from each pot to a final number of 1 plant per pot.
The plants were then grown in a growth chamber for 42 days with the following conditions: Temperature of 20° C. and with a 12/12 hour day/night.
After harvest, the percent mycorrhization was quantified using the methods of McGonigle et al. (T. P. McGONIGLE, M. H. MILLER and D. G. EVANS et al., “A new method which gives an objective measure of colonization of roots by vesicular-arbuscular mycorrhizal fungi”. New Phytol. Vol. 115 (3): 495-501.).

Test [2] relates to bacteria (16S) and fungi (ITS) communities. Nature of the test: Potato field trial: soil microbiome community and biodiversity. In kind it is in vivo, potato (Solanum tuberculosum L.). How it is done:
In this experiment, assuming that biodiversity can be measured by the taxonomic richness and abundance of each taxon, the differences between treatments are determined and their effect on populations and beneficial species over time is verified. This leads to testing two hypotheses. Firstly, there is an impact of cyclobutrifluram applications on microbial diversity. Secondly, the use of cyclobutrifluram improves beneficial microbial diversity over time. These hypotheses were tested in two potato farms in the USA.
The experiment was carried out in two potato (Solanum tuberculosum L.) fields located in two test locations in Louisiana, USA, described as locations A and B in Table 2. In each experimental field, three products were tested in an area of 10 m^2 (Table 3) and three replicates per product were established by complete block randomized. To evaluate the effects on the microbiome a “Check” plot (untreated) was established. In addition, fluopyram was employed as a comparative example. Fluopyram is a widely used fungicide and nematicide, and represents the industry standard herein.
To analyse the microbial biodiversity, three soil samples were taken per treatment and each sample consisted of soil collected from three different points within the plots. In this way, the effect of soil variability was minimized, since there were nine samples per treatment. […]
As set out above, to detect microbial community modifications in the soil microbiome associated with the cyclobutrifluram treatment, PCR amplification and successive high-throughput sequencing of bacterial and fungal taxonomical marker genes (the small-subunit ribosomal RNA gene (16S) and the ribosomal internal transcribed spacers (ITS) respectively) were performed on plant-associated soil samples. An exploratory data analysis was conducted to describe the microbial biodiversity and the behaviour of the percentage of the abundance of species under the evaluated factors. […]

For the compound `O=C(N[C@@H]1CO[C@@H]1c1ccc(F)cc1F)c1nccnc1C(F)(F)F` (racemic) [Compound A5], the response vs control in vivo at 0.15 mg/seed in test [1] turned out to be 81%.
Regarding `O=C(N[C@@H]1CO[C@@H]1c1ccc(Cl)cc1Cl)c1nccnc1C(F)(F)F` (racemic) [Compound A6], the response vs control in vivo at 0.15 mg/seed in test [1] was determined as 97%.
On the same count and under the same terms, the value for `O=C(N[C@@H]1CO[C@@H]1c1ccc(Cl)cc1Cl)c1cccnc1C(F)(F)F` (racemic) [Compound A7] was 76%; that for `O=C(N[C@H]1CC[C@H]1c1ccc(F)cc1F)c1nccnc1C(F)(F)F` [Compound A1] was 61%.
Turning to `O=C(N[C@H]1CC[C@H]1c1ccc(F)cc1Cl)c1cccnc1C(F)(F)F` [Compound A2], the response vs control in vivo at 0.15 mg/seed in test [1] is 72%.
`O=C(N[C@H]1CC[C@H]1c1ccc(F)cc1Cl)c1ncccc1C(F)(F)F` [Compound A3]: in test [1], the response vs control in vivo at 0.15 mg/seed came to 84%.
On the same count and under the same terms, the value for `O=C(N[C@H]1CC[C@H]1c1ccc(F)cc1F)c1ncccc1C(F)(F)F` [Compound A4] was 67%.
As to `O=C(NCCc1ncc(C(F)(F)F)cc1Cl)c1ccccc1C(F)(F)F` [fluopyram], the “beneficial effect on soil microbiome” value in test [2] is listed as “did not show any beneficial effect”. In addition, the “impact on plant-pathogenic microbes” value in test [2] (250 gai/ha) was “showed an impact in promoting in particular plant-pathogenic microbes”.
